According to BindingDB's records for doi:10.1021/jm960124f (1996):

Target: Aldo-keto reductase family 1 member A1 (Bos taurus)
Test: Evaluated for inhibition of Aldehyde reductase 1

O=C(O)Cn1nc2c(c(C(=O)O)c1=O)Cc1ccccc1-2 [2-Carboxymethyl-3-oxo-3,5-dihydro-2H-indeno[1,2-c]pyridazine-4-carboxylic acid]
IC50: 136 µM

O=C(O)Cn1nc2c(cc1=O)Cc1ccccc1-2 [(3-Oxo-3,5-dihydro-indeno[1,2-c]pyridazin-2-yl)-acetic acid]
IC50: 107 µM

O=C(O)Cn1nc2c(cc1=O)CCc1ccccc1-2 [(3-Oxo-5,6-dihydro-3H-benzo[h]cinnolin-2-yl)-acetic acid]
IC50: 156 µM

Cc1cc(C)c2c(c1)-c1nn(CCC(=O)O)c(=O)cc1CC2 [3-(7,9-Dimethyl-3-oxo-5,6-dihydro-3H-benzo[h]cinnolin-2-yl)-propionic acid]
IC50: 289 µM

O=C(O)Cn1nc2c(c(C(=O)O)c1=O)CCc1ccccc1-2 [2-Carboxymethyl-3-oxo-2,3,5,6-tetrahydro-benzo[h]cinnoline-4-carboxylic acid]
IC50: 161 µM

Cc1cc(C)c2c(c1)-c1nn(CC(=O)O)c(=O)cc1CC2 [(7,9-Dimethyl-3-oxo-5,6-dihydro-3H-benzo[h]cinnolin-2-yl)-acetic acid]
IC50: 295 µM

O=C(O)CCCn1nc2c(cc1=O)CCc1ccccc1-2 [4-(3-Oxo-5,6-dihydro-3H-benzo[h]cinnolin-2-yl)-butyric acid]
IC50: 92.6 µM
